Measurements taken from patent publication US7109216B2 (priority 2001, dated 2006).
Like-named read-outs stand apart in the source and are kept apart here.

Tests used:
[1] = molecular target: human cannabinoid CB1 receptor (Homo sapiens, UniProt P21554); assay: biochemical; format: binding; set-up: expressed in transfected cells; host or cells: Chinese hamster ovary (CHO) cells, membrane preparation; conditions: [3H]CP-55,940 radioligand, CHO cell membranes stably transfected with human CB1
Experimental: After incubation of a freshly prepared cell membrane preparation with the [^3H]-ligand, with or without addition of compounds of the invention, separation of bound and free ligand was performed by filtration over glassfiber filters. Radioactivity on the filter was measured by liquid scintillation counting.

Sequence of human cannabinoid CB1 receptor (P21554 whole entry): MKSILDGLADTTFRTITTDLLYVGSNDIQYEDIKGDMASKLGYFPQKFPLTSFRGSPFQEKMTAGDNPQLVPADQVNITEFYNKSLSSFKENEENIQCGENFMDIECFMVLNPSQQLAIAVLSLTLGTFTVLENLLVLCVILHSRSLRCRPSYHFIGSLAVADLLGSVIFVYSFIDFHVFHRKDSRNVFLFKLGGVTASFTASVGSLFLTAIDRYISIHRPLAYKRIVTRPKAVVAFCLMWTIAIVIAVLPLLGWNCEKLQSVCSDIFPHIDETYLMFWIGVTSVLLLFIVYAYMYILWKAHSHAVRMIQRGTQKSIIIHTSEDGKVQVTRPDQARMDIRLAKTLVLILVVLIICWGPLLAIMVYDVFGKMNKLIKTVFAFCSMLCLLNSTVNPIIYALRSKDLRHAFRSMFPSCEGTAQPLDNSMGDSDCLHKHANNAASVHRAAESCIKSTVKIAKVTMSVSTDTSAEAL

melting point	Ki ([1]; read-out: hCB1 pKi (converted))	SMILES	Ki ([1]; hCB1 pKi)
229 to 230 °C	–	Cc1c(C(=O)NC2CCCCC2)nc(-c2ccc(Cl)cc2Cl)n1-c1ccc(F)cc1	–
211 to 213 °C	–	Cc1cccnc1-c1nc(C(=O)NN2CCCCC2)c(C)n1-c1ccc(Cl)cc1	–
175 to 176 °C	200 nM	O=C(NN1CCCCC1)c1cn(-c2ccc(F)cc2)c(-c2ccc(Cl)cc2Cl)n1 [Example 31, 2-(2,4-Dichlorophenyl)-1-(4-fluorophenyl)-N-(piperidin-1-yl)-1H-imidazole-4-carboxamide]	–
115 °C	–	CCCCCNC(=O)c1cn(-c2ccc(Cl)cc2)c(-c2ccc(Cl)cc2OC)n1	–
117 °C	–	CCCCCNC(=O)c1cn(-c2cccnc2)c(-c2ccc(Cl)cc2Cl)n1	–
198 to 199 °C	–	CCc1c(C(=O)NC2CCCCC2)nc(-c2cc(Cl)ccc2Cl)n1-c1ccccc1	–
207 to 208 °C	–	CCc1c(C(=O)NN2CCCCC2)nc(-c2cc(Cl)ccc2Cl)n1-c1ccccc1	–
238 to 240 °C	–	O=C(NN1CCCC1)c1cn(-c2ccc(Br)cc2)c(-c2ccc(Cl)cc2Cl)n1	–
144 to 146 °C	–	CCc1c(C(=O)NC2CCCCC2)nc(-c2ccc(Cl)cc2Cl)n1-c1cc(F)ccc1F [Example 97, N-Cyclohexyl-2-(2,4-dichlorophenyl)-1-(2,5-difluorophenyl)-5-ethyl-1H-imidazole-4-carboxamide]	–
177 to 179 °C	–	CCN(CC)C(=O)c1cn(-c2ccc(Cl)cc2)c(-c2ccc(Cl)cc2Cl)n1	–
> 256 °C	–	COc1cc(Cl)ccc1-c1nc(C(=O)NN2CCCCC2)c(C)n1-c1ccc(Cl)cc1	–
206 to 208 °C	–	Cc1c(C(=O)NC2CCCCC2)nc(-c2ccc(Cl)cc2Cl)n1-c1cc(F)ccc1F [Example 98, N-Cyclohexyl-2-(2,4-dichlorophenyl)-1-(2,5-difluorophenyl)-5-methyl-1H-imidazole-4-carboxamide]	–
–	126 nM	O=C(Nc1ccccc1)c1cn(-c2ccc(Cl)cc2)c(-c2ccc(Cl)cc2Cl)n1 [Example 4, 1-(4-Chlorophenyl)-2-(2,4-dichlorophenyl)-N-phenyl-1H-imidazole-4-carboxamide]	–
165 to 170 °C	–	O=C(NN1CCCCC1)c1cn(-c2cccnc2)c(-c2ccc(Cl)cc2Cl)n1 [Example 42, 2-(2,4-Dichlorophenyl)-1-(pyridin-3-yl)-N-(piperidin-1-yl)-1H-imidazole-4-carboxamide]	–
195 °C	–	O=C(NC1CCCCC1)c1cn(-c2cccnc2)c(-c2ccc(Cl)cc2Cl)n1	–

Second part, the molecule before the results:

SMILES	melting point	Ki ([1]; read-out: hCB1 pKi (converted))	Ki ([1]; hCB1 pKi)
CCCCCNC(=O)c1nc(-c2ccc(Cl)cc2F)n(-c2ccc(Cl)cc2)c1C [Example 67, 1-(4-Chlorophenyl)-2-(2-fluoro-4-chlorophenyl)-5-methyl-N-(n-pentyl)-1H-imidazole-4-carboxamide]	115 °C	–	398 nM
O=C(NC1CCCCC1)c1nc(-c2ccc(Cl)cc2Cl)n(-c2ccc(Cl)cc2)c1I [Example 112, 1-(4-Chlorophenyl)-N-cyclohexyl-2-(2,4-dichlorophenyl)-5-iodo-1H-imidazole-4-carboxamide]	226 to 230 °C	–	6.31 nM
O=C(NN1CCCCC1)c1nc(-c2ccc(Cl)cc2Cl)n(-c2ccc(Cl)cc2)c1CO [Example 115, 1-(4-chlorophenyl)-2-(2,4-dichlorophenyl)-5-hydroxymethyl-N-(piperidin-1-yl)-1H-imidazole-4-carboxamide]	212 to 214 °C	–	31.6 nM
Cc1c(C(=O)NCc2ccc(F)cc2)nc(-c2ccc(Cl)cc2Cl)n1-c1ccc(Cl)cn1 [Example 56, 1-(5-Chloropyridin-2-yl)-2-(2,4-dichlorophenyl)-N-(4-fluorobenzyl)-5-methyl-1H-imidazole-4-carboxamide]	123 to 126 °C	158 nM	–
Cc1c(C(=O)C2NCCc3ccccc32)nc(-c2ccc(Cl)cc2Cl)n1-c1ccc(Cl)cc1 (centres unmarked) [Example 88, 1-{[1-(4-Chlorophenyl)-2-(2,4-dichlorophenyl)-5-methyl-1H-imidazol-4-yl]carbonyl}-1,2,3,4-tetrahydroisoquinoline]	143 to 146 °C	–	–
Cc1c(C(=O)NN2CCCCCC2)nc(-c2ccc(Cl)cc2Cl)n1-c1ccc(Cl)cn1 [Example 53, N-(1-Azepanyl)-1-(5-Chloropyridin-2-yl)-2-(2,4-dichlorophenyl)-5-methyl-1H-imidazole-4-carboxamide]	–	–	50.1 nM
Cc1cccnc1-c1nc(C(=O)NC2CCCCC2)c(C)n1-c1ccc(Cl)cc1	188 to 190 °C	–	–
Cc1c(C(=O)NCCF)nc(-c2ccc(Cl)cc2Cl)n1-c1ccc(Cl)cc1 [Example 85, 1-(4-Chlorophenyl)-2-(2,4-dichlorophenyl)-N-(2-fluoroethyl)-5-methyl-1H-imidazole-4-carboxamide]	128 to 133 °C	–	25.1 nM
Cc1c(C(=O)NC2CCCCC2)nc(-c2ccc(Cl)cc2Cl)n1-c1ccc(Cl)cn1 [Example 54, 1-(5-Chloropyridin-2-yl)-N-cyclohexyl-2-(2,4-dichlorophenyl)-5-methyl-1H-imidazole-4-carboxamide]	–	–	100 nM
Cc1c(C(=O)NCc2ccc(F)cc2)nc(-c2ccc(Cl)cc2Cl)n1-c1ccc(Cl)cc1 [Example 90, 1-(4-Chlorophenyl)-2-(2,4-dichlorophenyl)-N-(4-fluorobenzyl)-5-methyl-1H-imidazole-4-carboxamide]	165 to 166 °C	–	10 nM
CCCCCNC(=O)c1nc(-c2ccc(Cl)cc2Cl)n(-c2ccc(Cl)cc2)c1C [Example 91, 1-(4-Chlorophenyl)-2-(2,4-dichlorophenyl)-5-methyl-N-(n-pentyl)-1H-imidazole-4-carboxamide]	–	–	31.6 nM
CCCCCNC(=O)c1nc(-c2ccc(Cl)cc2Cl)n(-c2ccc(Cl)cn2)c1C [Example 55, 1-(5-Chloropyridin-2-yl)-2-(2,4-dichlorophenyl)-5-methyl-N-(n-pentyl)-1H-imidazole-4-carboxamide]	–	–	50.1 nM
Cc1c(C(=O)Nc2ccccc2)nc(-c2ccc(Cl)cc2Cl)n1-c1ccc(Cl)cc1 [Example 82, 1-(4-Chlorophenyl)-2-(2,4-dichlorophenyl)-5-methyl-N-phenyl-1H-imidazole-4-carboxamide]	91 to 95 °C	–	2.51 nM
CCCCCNC(=O)c1nc(-c2ccccc2Cl)n(-c2cccc(F)c2)c1C	97 to 102 °C	–	–
N#Cc1c(C(=O)NC2CCCCC2)nc(-c2ccc(Cl)cc2Cl)n1-c1ccc(Cl)cc1 [Example 113, 1-(4-Chlorophenyl)-5-cyano-N-cyclohexyl-2-(2,4-dichlorophenyl)-1H-imidazole-4-carboxamide]	157 to 158 °C	–	15.8 nM
CCc1c(C(=O)NC2CCCCC2)nc(-c2ccc(Cl)cc2Cl)n1-c1ccc(Cl)cn1 [Example 78, 1-(5-Chloropyridin-2-yl)-N-cyclohexyl-2-(2,4-dichlorophenyl)-5-ethyl-1H-imidazole-4-carboxamide]	149 °C	–	3.16 nM
CCc1c(C(=O)NN2CCCCC2)nc(-c2ccccc2Cl)n1-c1ccc(Cl)cn1 [Example 116, 1-(5-chloropyrid-2-yl)-2-(2-chlorophenyl)-5-ethyl-N-(piperidin-1-yl)-1H-imidazole-4-carboxamide]	217 to 219 °C	–	12.6 nM
CCCCCNC(=O)c1nc(-c2ccc(Cl)cc2OC)n(-c2ccc(Cl)cc2)c1C [Example 59, 1-(4-Chlorophenyl)-2-(2-methoxy-4-chlorophenyl)-5-methyl-N-(n-pentyl)-1H-imidazole-4-carboxamide]	131 °C	–	501 nM
Cc1c(C(=O)NC2CC3CCC2C3)nc(-c2ccc(Cl)cc2Cl)n1-c1ccc(Cl)cc1 (stereo not drawn) [Example 89, N-(Endo-bicyclo[2.2.1]hept-2-yl)-1-(4-chlorophenyl)-2-(2,4-dichlorophenyl)-5-methyl-1H-imidazole-4-carboxamide]	–	–	6.31 nM
O=C(NC12CC3CC(CC(C3)C1)C2)c1cn(-c2ccc(Cl)cc2)c(-c2ccc(Cl)cc2C(F)(F)F)n1	288 °C	–	–
Cc1c(C(=O)NOC(C)(C)C)nc(-c2ccc(Cl)cc2)n1-c1ccc(Cl)cc1Cl [Example 11, N-(t-Butoxy)-2-(4-chlorophenyl)-1-(2,4-dichlorophenyl)-5-methyl-1H-imidazole-4-carboxamide]	–	501 nM	–
CSc1c(C(=O)NC2CCCCC2)nc(-c2ccc(Cl)cc2Cl)n1-c1ccc(Cl)cc1 [Example 121, 1-(4-chlorophenyl)-2-(2,4-dichlorophenyl)-5-methylsulfanyl-N-(cyclohexyl)-1H-imidazole-4-carboxamide]	–	–	63.1 nM
CS(=O)(=O)c1c(C(=O)NC2CCCCC2)nc(-c2ccc(Cl)cc2Cl)n1-c1ccc(Cl)cc1 [Example 119, 1-(4-chlorophenyl)-2-(2,4-dichlorophenyl)-5-methylsulfonyl-N-(cyclohexyl)-1H-imidazole-4-carboxamide]	–	–	63.1 nM
O=C(NCC(F)(F)F)c1cn(-c2ccc(Cl)cc2)c(-c2ccc(Cl)cc2C(F)(F)F)n1	149 °C	–	–
Cc1c(C(=O)NC2CCCCC2)nc(-c2ccc(Cl)cc2C(F)(F)F)n1-c1ccc(Cl)cc1	212 °C	–	–
CCc1c(C(=O)NC2CCCCC2)nc(-c2ccc(C)n2C)n1-c1ccccc1	195 to 196 °C	–	–
COc1cc(Cl)ccc1-c1nc(C(=O)NC2CCCCC2)c(C)n1-c1ccc(Cl)cc1	201 °C	–	–
CCCCCNC(=O)c1nc(-c2ccc(Cl)cc2Cl)n(-c2ccc(Cl)cn2)c1CC [Example 79, 1-(5-Chloropyridin-2-yl)-2-(2,4-dichlorophenyl)-5-ethyl-N-(n-pentyl)-1H-imidazole-4-carboxamide]	–	–	15.8 nM
Cc1c(C(=O)N(C)C)nc(-c2ccc(Cl)cc2Cl)n1-c1ccc(Cl)cc1 [Example 50, 1-(4-Chlorophenyl)-2-(2,4-dichlorophenyl)-N,N,5-trimethyl-1H-imidazole-4-carboxamide]	–	–	5.01 nM
